The source of these data is patent US20260062443A1 (ALEXION PHARMACEUTICALS, INC., priority 2022, published 2026).

This assay addresses T1, Human complement C1s enzyme (Homo sapiens, UniProt P09871).
T1 sequence (P09871 438-688 limits assumed): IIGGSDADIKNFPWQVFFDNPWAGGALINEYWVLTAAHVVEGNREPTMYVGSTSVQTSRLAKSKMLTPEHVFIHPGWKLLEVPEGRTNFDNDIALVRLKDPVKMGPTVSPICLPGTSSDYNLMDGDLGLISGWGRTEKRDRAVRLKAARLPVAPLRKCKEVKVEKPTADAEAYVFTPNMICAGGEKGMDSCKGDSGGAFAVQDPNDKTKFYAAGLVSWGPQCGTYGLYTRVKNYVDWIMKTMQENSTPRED
T1 sequence (P09871 16-437 partner limits assumed): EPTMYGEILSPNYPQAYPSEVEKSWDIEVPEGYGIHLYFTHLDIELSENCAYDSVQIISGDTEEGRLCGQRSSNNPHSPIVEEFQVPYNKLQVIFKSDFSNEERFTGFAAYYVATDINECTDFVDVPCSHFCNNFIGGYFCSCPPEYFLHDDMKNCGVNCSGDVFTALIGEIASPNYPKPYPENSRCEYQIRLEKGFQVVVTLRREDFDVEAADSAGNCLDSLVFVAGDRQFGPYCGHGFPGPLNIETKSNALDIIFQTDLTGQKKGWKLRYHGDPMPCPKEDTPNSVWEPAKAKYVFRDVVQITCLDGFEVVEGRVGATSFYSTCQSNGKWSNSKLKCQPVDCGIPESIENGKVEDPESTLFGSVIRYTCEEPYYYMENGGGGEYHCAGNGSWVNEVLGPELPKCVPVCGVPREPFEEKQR
As to the kind of experiment: Human C1s enzyme assay. The format is biochemical. To be noted: human complement C1s enzyme 1.16 nM, substrate Z-L-Lys-SBzl 100 μM, 5 min preincubation; read-out: IC50 (Stars), C1s Inhibiting Activity. A digest of the protocol: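 IC50 from nonlinear regression of reaction rates versus compound concentration, with rates taken from A405 recorded at 30 s intervals over 30 min after adding 100 μM Z-L-Lys-SBzl plus 100 μM DTNB. Enzyme was human C1s purified from serum, 1.16 nM, given 5 min compound preincubation at room temperature, pH 7.5 Tris/1 M NaCl.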
Regarding `O=C(NCC(=O)N1C[C@H](OC(F)F)C[C@H]1C(=O)NCc1cc2cnccc2[nH]1)c1cccc(Oc2cc(F)ccc2F)c1` [Compound 295, (2S,4R)-N-((1H-pyrrolo[3,2-c]pyridin-2-yl)methyl)-4-(difluoromethoxy)-1-((3-(2,5-difluorophenoxy)benzoyl)glycyl) pyrrolidine-2-carboxamide], the IC50 was less than 0.1 µM.
Regarding `C[C@@H](NC(=O)[C@@H]1C[C@H](c2ncco2)CN1C(=O)CNC(=O)c1ccc2c(c1)Oc1ccccc1S2)c1cc2cnccc2[nH]1` [Compound 178, (2S,4S)-N-((R)-1-(1H-pyrrolo[3,2-c]pyridin-2-yl)ethyl)-4-(oxazol-2-yl)-1-((phenoxathiine-3-carbonyl)glycyl)pyrrolidine-2-carboxamide], the IC50 is less than 0.1 µM.
As to `C[C@@]12C[C@@H]1N(C(=O)CNC(=O)c1ccc3c(c1)Oc1ccccc1S3)[C@H](C(=O)NCc1ccc(B(O)O)cc1)C2` [Compound 263, (4-(((1S,3S,5S)-5-methyl-2-((phenoxathiine-3-carbonyl)glycyl)-2-azabicyclo[3.1.0]hexane-3-carboxamido)methyl)phenyl) boronic acid], the IC50 was greater than 1 µM.
As to `O=C(NCC(=O)N1C[C@H](OC(F)F)C[C@H]1C(=O)NCc1cnc2c(c1)NCC2)c1ccc2c(c1)Oc1ccccc1S2` [Compound 257, (2S,4R)-4-(difluoromethoxy)-N-((2,3-dihydro-1H-pyrrolo[3,2-b]pyridin-6-yl)methyl)-1-((phenoxathiine-3-carbonyl)glycyl)pyrrolidine-2-carboxamide], the IC50 was greater than 1 µM.
As to `O=C(NCC(=O)N1C[C@H](OC(F)F)C[C@H]1C(=O)NCc1ccc2ncsc2c1)c1ccc2c(c1)Oc1ccccc1S2` [Compound 245, (2S,4R)-N-(benzo[d]thiazol-6-ylmethyl)-4-(difluoromethoxy)-1-((phenoxathiine-3-carbonyl)glycyl)pyrrolidine-2-carboxamide], the IC50 is greater than 1 µM.
The result for `COC[C@@H]1C[C@@H](C(=O)NCc2cc3cnccc3[nH]2)N(C(=O)CNC(=O)c2cccc(Oc3ccc(C)cc3F)c2)C1` (relative stereo) [Compound 318, (2S,4R*)-N-((1H-pyrrolo[3,2-c]pyridin-2-yl)methyl)-1-((3-(2-fluoro-4-methylphenoxy)benzoyl)glycyl)-4-(methoxymethyl)pyrrolidine-2-carboxamide] reads less than 0.1 µM.
Turning to `Cc1ccc(Oc2cccc(C(=O)NCC(=O)N3C[C@H](S(C)(=O)=O)C[C@H]3C(=O)NCc3cc4cnccc4[nH]3)c2)c(F)c1` [Compound 309, (2S,4R)-N-((1H-pyrrolo[3,2-c]pyridin-2-yl)methyl)-1-((3-(2-fluoro-4-methylphenoxy)benzoyl)glycyl)-4-(methylsulfonyl) pyrrolidine-2-carboxamide], the IC50 is less than 0.1 µM.
As for `COc1ccc(C(=O)NCC(=O)N2C[C@H](OC(F)F)C[C@H]2C(=O)NCc2cc3cnccc3[nH]2)cc1` [Compound 384, (2S,4R)-N-((1H-pyrrolo[3,2-c]pyridin-2-yl)methyl)-4-(difluoromethoxy)-1-((4-methoxybenzoyl)glycyl) pyrrolidine-2-carboxamide], the figure is greater than 1 µM; as for `C[C@@]12C[C@@H]1N(C(=O)CNC(=O)c1ccc(Oc3ccccc3)cc1)[C@H](C(=O)NCc1cc3cnccc3[nH]1)C2` [Compound 28, (1S,3S,5S)-N-((1H-pyrrolo[3,2-c]pyridin-2-yl)methyl)-5-methyl-2-((4-phenoxybenzoyl)glycyl)-2-azabicyclo[3.1.0]hexane-3-carboxamide], less than 0.1 µM; as for `Cc1ccc(COc2cccc(C(=O)NCC(=O)N3C[C@H](OC(F)F)C[C@H]3C(=O)NCc3cc4cnccc4[nH]3)c2)c(F)c1` [Compound 325, (2S,4R)-N-((1H-pyrrolo[3,2-c]pyridin-2-yl)methyl)-4-(difluoromethoxy)-1-((3-((2-fluoro-4-methylbenzyl)oxy)benzoyl)glycyl)pyrrolidine-2-carboxamide], less than 0.1 µM.
The result for `COC[C@@H]1C[C@@H](C(=O)N[C@H](C)c2cc3cnccc3[nH]2)N(C(=O)CNC(=O)c2ccc3c(c2)Oc2ccccc2S3)C1` [Compound 149, (2S,4R)-N-((R)-1-(1H-pyrrolo[3,2-c]pyridin-2-yl)ethyl)-4-(methoxymethyl)-1-((phenoxathiine-3-carbonyl)glycyl)pyrrolidine-2-carboxamide] reads less than 0.1 µM; that for `CS(=O)(=O)[C@@H]1C[C@@H](C(=O)NCc2cc3cnccc3[nH]2)N(C(=O)CNC(=O)c2ccc3c(c2)-c2ccccc2C3(F)F)C1` [Compound 7, (2S,4R)-N-((1H-pyrrolo[3,2-c]pyridin-2-yl)methyl)-1-((9,9-difluoro-9H-fluorene-3-carbonyl)glycyl)-4-(methylsulfonyl)pyrrolidine-2-carboxamide], less than 0.1 µM.
Regarding `CCc1ccc(Oc2cc(F)cc(C(=O)NCC(=O)N3C[C@H](OC(F)F)C[C@H]3C(=O)NCc3cc4cnccc4[nH]3)c2)cc1` [Compound 370, (2S,4R)-N-((1H-pyrrolo[3,2-c]pyridin-2-yl)methyl)-4-(difluoromethoxy)-1-((3-(4-ethylphenoxy)-5-fluorobenzoyl)glycyl)pyrrolidine-2-carboxamide], the IC50 is less than 0.1 µM.
The result for `C[C@@H](NC(=O)[C@@H]1CC(Cn2ccnc2)CN1C(=O)CNC(=O)c1ccc2c(c1)Oc1ccccc1S2)c1cc2cnccc2[nH]1` (stereo partly drawn) [Compound 184, (2S)-4-((1H-imidazol-1-yl)methyl)-N-((R)-1-(1H-pyrrolo[3,2-c]pyridin-2-yl)ethyl)-1-((phenoxathiine-3-carbonyl)glycyl)pyrrolidine-2-carboxamide] reads less than 0.1 µM; that for `C[C@@H](NC(=O)[C@@H]1C[C@@H](S(C)(=O)=O)CN1C(=O)CNC(=O)c1ccc2c(c1)Oc1ccccc1S2)c1cc2cnccc2[nH]1` [Compound 238, (2S,4R)-N-((R)-1-(1H-pyrrolo[3,2-c]pyridin-2-yl)ethyl)-4-(methylsulfonyl)-1-((phenoxathiine-3-carbonyl)glycyl)pyrrolidine-2-carboxamide], less than 0.1 µM; that for `Cc1ccc(-c2ccc3c(c2)CN(CC(=O)N2C[C@H](OC(F)F)C[C@H]2C(=O)N[C@H](C)c2cc4cnccc4[nH]2)C3=O)cc1` [Compound 105, (2S,4R)-N-((R)-1-(1H-pyrrolo[3,2-c]pyridin-2-yl)ethyl)-4-(difluoromethoxy)-1-(2-(1-oxo-5-(p-tolyl)isoindolin-2-yl)acetyl)pyrrolidine-2-carboxamide], less than 0.1 µM.
The result for `COC[C@@]1(F)C[C@@H](C(=O)N[C@H](C)c2cc3cnccc3[nH]2)N(C(=O)CNC(=O)c2ccc(Oc3ccccc3)cc2)C1` [Compound 40, (2S,4R)-N-((R)-1-(1H-pyrrolo[3,2-c]pyridin-2-yl)ethyl)-4-fluoro-4-(methoxymethyl)-1-((4-phenoxybenzoyl)glycyl) pyrrolidine-2-carboxamide] reads 0.1 to 1 µM; that for `C[C@@]12C[C@@H]1N(C(=O)CNC(=O)CCCOc1ccccc1)[C@H](C(=O)OCc1cc3c(cn1)CNC3)C2` [Compound 66, (2,3-dihydro-1H-pyrrolo[3,4-c]pyridin-6-yl)methyl (1S,3S,5S)-5-methyl-2-((4-phenoxybutanoyl)glycyl)-2-azabicyclo[3.1.0]hexane-3-carboxylate], greater than 1 µM; that for `C[C@@]12C[C@@H]1N(C(=O)CNC(=O)CCCOc1ccccc1)[C@H](C(=O)NC1CN(C(=O)[C@H]3CNCCN3)C1)C2` [Compound 296, (1S,3S,5S)-5-methyl-2-((4-phenoxybutanoyl)glycyl)-N-(1-((R)-piperazine-2-carbonyl)azetidin-3-yl)-2-azabicyclo[3.1.0]hexane-3-carboxamide], greater than 1 µM.
The result for `O=C(NCC(=O)N1C[C@H](OC(F)F)C[C@H]1C(=O)NCc1cc2cnccc2[nH]1)c1cccc(Oc2ccsc2)c1` [Compound 303, (2S,4R)-4-(difluoromethoxy)-N-(1H-pyrrolo[3,2-c]pyridin-2-ylmethyl)-1-[2-[[3-(3-thienyloxy)benzoyl]amino]acetyl]pyrrolidine-2-carboxamide] reads less than 0.1 µM.
On to `O=C(NCC(=O)N1C[C@H](OC(F)F)C[C@H]1C(=O)NCc1cc2cnccc2[nH]1)c1ccc(Oc2ccccc2)cn1` [Compound 137, N-(2-((2S,4R)-2-(((1H-pyrrolo[3,2-c]pyridin-2-yl)methyl)carbamoyl)-4-(difluoromethoxy)pyrrolidin-1-yl)-2-oxoethyl)-5-phenoxypicolinamide], for which the IC50 is less than 0.1 µM.
As for `O=C(NCc1cc2cnccc2[nH]1)[C@@H]1CC2(CN1C(=O)CN1Cc3cc(-c4ccc(F)cc4)ccc3C1=O)OCCO2` [Compound 121, (S)-N-((1H-pyrrolo[3,2-c]pyridin-2-yl)methyl)-7-(2-(5-(4-fluorophenyl)-1-oxoisoindolin-2-yl)acetyl)-1,4-dioxa-7-azaspiro[4.4]nonane-8-carboxamide], the figure is 0.1 to 1 µM.
